Data taken from PMC4628094, “In Vitro Assessment of Uptake and Lysosomal Sequestration of Respiratory Drugs in Alveolar Macrophage Cell Line NR8383” (Pharmaceutical Research, 2015).
Where two headings read alike, the source gives them in different places. Marks after values point to notes of the source that are not given here.

What was measured:
NR8383 cell line = tested on: NR8383 cell line; design: method as in ref (11) (a number printed in a supplementary file, which may have a reference list of its own: not looked up in the article's list); settings: NH4Cl 10 mM, drug 50 µM, 120 min; ref (11); cited from earlier work
[1] = tested on: Primary rat cerebellar neurons; design: method as in ref (15) (a number printed in a supplementary file, which may have a reference list of its own: not looked up in the article's list); settings: drug 10^-4 µM, 30 min, ref (15), cited from earlier work
[2] = tested on: Lung tissue slices from male Wistar rats; design: method as in ref (9) (a number printed in a supplementary file, which may have a reference list of its own: not looked up in the article's list); settings: NH4Cl 20 mM, drug 5 µM, 60 min, ref (9); cited from earlier work
[3] = tested on: Lysosomes isolated from male Wistar rat liver; design: method as in ref (16) (a number printed in a supplementary file, which may have a reference list of its own: not looked up in the article's list); settings: nigericin […], drug 1 µM, 20 min, ref (16), cited from earlier work
[4] = tested on: Liver tissue slices from male Wistar rats; design: method as in ref (8) (a number printed in a supplementary file, which may have a reference list of its own: not looked up in the article's list); settings: NH4Cl 20 mM, drug 5 µM, 60 min, ref (8); cited from earlier work
[5] = tested on: Lung tissue slices from male Wistar rats; design: method as in ref (5) (a number printed in a supplementary file, which may have a reference list of its own: not looked up in the article's list); settings: NH4Cl 20 mM, drug 5 µM, 60 min, ref (5); cited from earlier work
[6] = tested on: Lysosomes isolated from male Wistar rat liver; design: method as in ref (4) (a number printed in a supplementary file, which may have a reference list of its own: not looked up in the article's list); settings: 10 min, ref (4), cited from earlier work
[7] = tested on: Lung tissue slices from male Wistar rats; design: method as in ref (8) (a number printed in a supplementary file, which may have a reference list of its own: not looked up in the article's list); settings: NH4Cl 20 mM, drug 5 µM, 60 min, ref (8); cited from earlier work
NR8383 cells [8] = tested on: NR8383 cells
[9] = tested on: Lung granule fraction containing lysosomes from male Wistar rats; design: method as in ref (6) (a number printed in a supplementary file, which may have a reference list of its own: not looked up in the article's list); settings: NH4Cl 10 mM, drug 1 µM, 10 min; ref (6); cited from earlier work
[10] = tested on: Liver tissue slices from male Wistar rats; design: method as in ref (14) (a number printed in a supplementary file, which may have a reference list of its own: not looked up in the article's list); settings: monensin 10 µM, drug 5 µM, 60 min, ref (14); cited from earlier work
[11] = tested on: isolated perfused lungs of rats; settings: depending on concentration, ref ([37],[43],[44]); cited from earlier work
NR8383 cells [12] = assay: Accumulation (Kp) in NR8383 over a concentration range, two-site binding model; settings: apparent saturable uptake equilibrium constant, two-site binding model, control
[13] = tested on: Liver tissue slices from male Wistar rats; design: method as in ref (5) (a number printed in a supplementary file, which may have a reference list of its own: not looked up in the article's list); settings: NH4Cl 20 mM, drug 5 µM, 60 min, ref (5); cited from earlier work
[14] = tested on: Brain slices from male Wistar rats; design: method as in ref (10) (a number printed in a supplementary file, which may have a reference list of its own: not looked up in the article's list); settings: drug 5 µM, 60 min, ref (10), cited from earlier work
[15] = tested on: Liver tissue slices from male Wistar rats; design: method as in ref (9) (a number printed in a supplementary file, which may have a reference list of its own: not looked up in the article's list); settings: NH4Cl 20 mM, drug 5 µM, 60 min, ref (9); cited from earlier work
[16] = tested on: Lung tissue slices from male Wistar rats; design: method as in ref (14) (a number printed in a supplementary file, which may have a reference list of its own: not looked up in the article's list); settings: monensin 10 µM, drug 5 µM, 60 min, ref (14); cited from earlier work

Structure (SMILES): CC[C@H]1OC(=O)[C@H](C)C(=O)[C@H](C)[C@@H](O[C@@H]2O[C@H](C)C[C@H](N(C)C)[C@H]2O)[C@](C)(OC)C[C@@H](C)C(=O)[C@H](C)[C@H]2N(CCCCn3cnc(-c4cccnc4)c3)C(=O)O[C@]12C [Telithromycin]
- Reduction in total uptake (%) (NR8383 cell line): 80^b %

Structure (SMILES): CN(C)CCCN1c2ccccc2CCc2ccccc21 [Imipramine]
- Reduction of total uptake (%) ([1]; monensin 10 µM): 83%
- Reduction of total uptake (%) ([1]; monensin […]): 50%
- Reduction in total uptake (%) [2]: 49%
- Reduction of total uptake (%) ([3]; relative to control with ATP): 99%
- Reduction of total uptake (%) ([3]; relative to control without ATP): 93%
- Reduction in total uptake (%) [4]: 57%
- Reduction in total uptake (%) [5]: 59%
- Reduction in total uptake (%) ([6]; NH4Cl 50 mM, drug 10^-4 µM): 70^b %
- Reduction of total uptake (%) ([6]; nigericin 50 µM, drug 0.001 µM): 70^b %
- Reduction in total uptake (%) [7]: 35%
- cytotoxicity (LDH) compared to positive control (NR8383 cells [8]; drug 50 μM): less than 1%
- cytotoxicity (LDH) compared to positive control (NR8383 cells [8]; drug 100 μM): less than 1%
- Reduction in total uptake (%) [9]: 31%
- Reduction of total uptake (%) [10]: 48%
- estimated Kp [11]: 17–44
- KU1 (NR8383 cells [12]): 0.9 ± 0.3 µM
- Reduction in total uptake (%) [13]: 58%
- Reduction in total uptake (%) ([14]; NH4Cl 20 mM): 41%
- Reduction of total uptake (%) ([14]; monensin 10 µM): 37%
- Reduction in total uptake (%) [15]: 62%
- Reduction of total uptake (%) [16]: 64%
